Earlier results in patent US20190091218A1 (priority 2016, published 2019).
Like-named read-outs stand apart in the source and are kept apart here.

Tests used:
H1 receptor = H1 receptor (Homo sapiens, UniProt P35367); conditions: acidic pH
[1] = system: histamine induced wheal and flare
[2] = not given; remark: listed apart in the source
[3] = standard 10 mg oral dose

H1 receptor, sequence (P35367 whole entry): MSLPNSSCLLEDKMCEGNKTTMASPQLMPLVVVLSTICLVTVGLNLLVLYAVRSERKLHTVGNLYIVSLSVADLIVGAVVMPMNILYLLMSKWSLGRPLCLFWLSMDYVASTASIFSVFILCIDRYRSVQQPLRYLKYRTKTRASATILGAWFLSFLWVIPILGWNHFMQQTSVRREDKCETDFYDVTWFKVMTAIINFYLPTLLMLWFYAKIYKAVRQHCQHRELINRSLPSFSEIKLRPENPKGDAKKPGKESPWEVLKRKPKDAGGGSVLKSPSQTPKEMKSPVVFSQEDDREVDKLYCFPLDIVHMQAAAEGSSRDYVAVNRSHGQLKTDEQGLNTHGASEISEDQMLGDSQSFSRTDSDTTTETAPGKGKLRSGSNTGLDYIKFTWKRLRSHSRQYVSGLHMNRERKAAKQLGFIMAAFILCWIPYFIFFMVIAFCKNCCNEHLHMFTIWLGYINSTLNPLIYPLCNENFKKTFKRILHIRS

Row | SMILES | receptor affinity over first generation mepyramine (H1 receptor) [×] | potency among modern generation antihistamines ([1]; histamine induced wheal and flare data) | effectiveness versus fexofenadine ([1]; levocetirizine 5 mg per day vs fexofenadine 180 mg per day) | dose that can be safely administered (studies in humans) | levels of HRV-induced increases in ICAM-1 (human rhinovirus (HRV); added before, after, or at the time of the HRV infection) | HRV-induced ICAM-1, cytokine expression, and viral replication (human rhinovirus (HRV); airway epithelial cells from nose and lung) | time to steady state level ([2]; in vivo) [h] | peak concentration ([2]; repeated 5 mg once daily oral dose) [ng/mL] | peak concentration ([2]; single 5 mg oral dose) [ng/mL] | dose administered without clinically relevant side effects (adult patients, 22 weeks) | dose administered without clinically relevant side effects (short-term studies, approximately one week) | mean AUC [3] [ng/h/mL]
1 | O=C(O)COCCN1CCN([C@H](c2ccccc2)c2ccc(Cl)cc2)CC1 [levocetirizine] | 5 | most potent of the five modern generation antihistamines | more effective than fexofenadine | up to 30 mg/day | reduced | inhibit | 40 | 308 | 270 | – | – | –
2 | CC(C)(O)c1ccccc1CC[C@@H](SCC1(CC(=O)O)CC1)c1cccc(/C=C/c2ccc3ccc(Cl)cc3n2)c1 [montelukast] | – | – | – | – | – | – | – | – | – | up to 200 mg/day | up to 900 mg/day | 2689
